According to US4117146A, “Method for treating depression and anxiety using phenyl hydrazo compounds” (The Dow Chemical Company, priority 1977, dated 1978):
Read-outs that look alike come from different tables or passages of the source.

What was measured:
[1] = intraperitoneal acute 50 percent lethal dose; conditions: mouse, in vivo, ip
[2] = test system: reserpine-induced depression; experiment: protection from reserpine-induced depression (ptosis) in mice; format: in vivo; conditions: for ED50: Mus musculus, 0.75 h; for antidepressant activity (in words): mean effective dose not calculated for the compounds of b45-b48
Description: Separate groups of mice of the same origin and past history (5 mice per group) were administered 2-(2-(2-chlorophenyl)hydrazino)-4,5-dihydro-1H-imidazole monohydrochloride in an aqueous carrier. Different groups were administered the compound by intraperitoneal injection at various dosage rates. Thirty minutes after the administration of the test compound, the mice were administered reserpine at a dosage rate of 2.5 milligrams per kilogram by intraperitoneal injection. Separate groups of similar mice were similarly administered 2.5 milligrams of reserpine per kilogram 30 minutes after administration of various dosages of the known antidepressant. The mice were then observed for 45 minutes for symptoms of reserpine-induced depression.
Protection from reserpine-induced depression is indicated by the absence of the characteristic ptosis.
The results were employed to calculate the dose effective to protect 50 percent of the mice (ED50) by classical, statistical procedures.
The procedure of Example 1 was repeated using oral administration of 2-(2-(2-chlorophenyl)hydrazino)-4,5-dihydro-1H-imidazole monohydrochloride instead of intraperitoneal injection.
Using the general procedure outlined above, the ED50 's were calculated for other compounds showing antidepressant properties. These compounds are represented by the general formula [drawing 2]

[3] = Table I, oral, read-out: ORAL ED50
[4] = ip, Table I, intraperitoneal, read-out: Intraperitoneal ED50

| Compound | LD50 [1] | ED50 ([2]; oral administration, reserpine 2.5 mg/kg i.p., read-out: oral ED50) | ED50 ([2]; ip, intraperitoneal, 30 minutes before reserpine 2.5 mg/kg i.p., read-out: ED50 (dose effective to protect 50 percent of the mice)) | antidepressant activity (in words) [2] | ED50 [2, 3] | ED50 [2, 4] |
| --- | --- | --- | --- | --- | --- | --- |
| Cl.Clc1ccccc1NNC1=NCCN1 [Example 1, 2-(2-(2-chlorophenyl)hydrazino)-4,5-dihydro-1H-imidazole monohydrochloride] | 167 mg/kg | 2 mg/kg | < 10 mg/kg | particularly active as antidepressants | – | – |
| Fc1ccccc1NNC1=NCCN1.I [Example 3, 2-((2-fluorophenyl)hydrazino)-4,5-dihydro-1H-imidazole monohydriodide] | – | – | – | particularly active as antidepressants | 1 mg/kg | < 10 mg/kg |
| CN1CCN=C1NNc1ccccc1F [Example 4] | – | – | – | – | 27 mg/kg | 37 mg/kg |
| Fc1ccccc1NNC1=NCCCN1 [Example 5] | – | – | – | – | 43 mg/kg | 37 mg/kg |
| CN1CCN=C1NNc1ccc(Cl)cc1Cl [Example 6] | – | – | – | – | – | 43 mg/kg |
